Data taken from ChEMBL document CHEMBL1150152, “Araguspongines K and L, new bioactive bis-1-oxaquinolizidine N-oxide alkaloids from Red Sea specimens of Xestospongia exigua” (J Nat Prod, 2002).
In brackets after ≈: the same amount, converted by molar mass. Activity calls are given as the source filed them. The calls are words filed in the database; no cut-off is given here.

Columns and labels:
[1] = system: Mycobacterium tuberculosis; experiment: Antitubercular activity against Mycobacterium tuberculosis H37Rv by alamar blue assay; type: functional
Plasmodium falciparum [2] = experiment: Antimalarial activity against Plasmodium falciparum W2; type: functional, organism-based
Plasmodium falciparum [3] = experiment: Antimalarial activity against Plasmodium falciparum D6; type: functional, organism-based

Structure (SMILES) | MIC [1] [µM] | Activity (Plasmodium falciparum [2]) | Activity (Plasmodium falciparum [3]) | IC50 (Plasmodium falciparum [2]) [mg/L] | IC50 (Plasmodium falciparum [3]) [mg/L]
CO[C@H]1/C=C/O[C@@]2(C)Oc3c(C)c(O)c4c(O)c(c(/C=N/N5CCN(C)CC5)c(O)c4c3C2=O)NC(=O)/C(C)=C\C=C\[C@H](C)[C@H](O)[C@@H](C)[C@@H](O)[C@@H](C)[C@H](OC(C)=O)[C@@H]1C [RIFAMPIN] | 0.61 (≈ 0.502 µg/mL) | – | – | – | –
[O-][N+]12CCC[C@]3(O)CCCCCC[C@@H]4CCN5CCC[C@@H](CCCCCC[C@H](CC1)O[C@@H]32)[C@@H]5O4 (stereo not given in full) | – | inactive | inactive | – | –
C[C@@H]1CC[C@H]2[C@@H](C)C(=O)O[C@@H]3O[C@@]4(C)CC[C@@H]1[C@]32OO4 [ARTEMISININ] | – | – | – | 0.007 (≈ 0.0248 µM) | 0.006 (≈ 0.0213 µM)
[O-][N+]12CCC[C@]3(O)CCCCCC[C@@H]4CCN5CCC[C@](O)(CCCCCC[C@H](CC1)O[C@@H]32)[C@@H]5O4 (stereo not given in full) | – | inactive | inactive | – | –
O[C@]12CCCCCC[C@@H]3CCN4CCC[C@](O)(CCCCCC[C@@H]5CCN(CCC1)[C@H]2O5)[C@@H]4O3 | 3.94 (≈ 1.89 µg/mL) | – | – | 0.28 (≈ 0.585 µM) | 0.67 (≈ 1.4 µM)
